Laboratory results reported in US20230295200A1 (REGENTS OF THE UNIVERSITY OF MICHIGAN, priority 2022, published 2023).

Legend:
STAT6 protein = target: T1, STAT6 protein (Homo sapiens, UniProt P42226); experiment: Fluorescence polarization (FP) binding assay, STAT6; conditions: FP competition, 5 nM fluorescein-labeled tracer, 200 nM protein, PBS pH7.4; read-out: Binding STAT6
T1 sequence (P42226 1-847): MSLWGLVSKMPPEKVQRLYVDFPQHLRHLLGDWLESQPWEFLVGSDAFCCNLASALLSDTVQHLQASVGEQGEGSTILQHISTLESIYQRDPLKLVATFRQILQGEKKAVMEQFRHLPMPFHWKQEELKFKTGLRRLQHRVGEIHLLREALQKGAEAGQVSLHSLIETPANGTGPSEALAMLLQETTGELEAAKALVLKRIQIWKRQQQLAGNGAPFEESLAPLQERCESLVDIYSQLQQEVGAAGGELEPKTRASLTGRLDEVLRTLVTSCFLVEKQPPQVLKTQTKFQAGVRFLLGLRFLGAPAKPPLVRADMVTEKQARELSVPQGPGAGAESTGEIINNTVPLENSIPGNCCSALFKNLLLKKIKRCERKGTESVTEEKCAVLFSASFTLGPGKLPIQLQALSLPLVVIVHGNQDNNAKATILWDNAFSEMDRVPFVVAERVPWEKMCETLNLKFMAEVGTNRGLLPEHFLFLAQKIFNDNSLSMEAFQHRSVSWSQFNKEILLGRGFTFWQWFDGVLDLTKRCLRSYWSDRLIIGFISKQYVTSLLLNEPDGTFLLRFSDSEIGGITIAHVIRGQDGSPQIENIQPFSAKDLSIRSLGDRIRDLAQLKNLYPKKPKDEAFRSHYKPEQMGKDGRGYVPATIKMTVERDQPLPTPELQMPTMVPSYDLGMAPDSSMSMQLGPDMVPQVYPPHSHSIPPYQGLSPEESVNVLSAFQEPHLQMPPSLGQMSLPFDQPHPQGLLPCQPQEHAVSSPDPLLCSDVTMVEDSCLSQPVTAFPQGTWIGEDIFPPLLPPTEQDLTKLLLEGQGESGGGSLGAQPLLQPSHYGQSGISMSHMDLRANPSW
How it was run: (§1)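 5 nM fluorescein tracer + 200 nM STAT protein; PBS pH 7.4, 0.01% BGG, 0.01% Tween-20, 2 mM DTT; shake 15 min, 1 h RT equilibrium; FP read; nonlinear fit for inhibition constants.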

STAT5A = target: T2, STAT5A (Homo sapiens, UniProt P42229); experiment: Fluorescence polarization (FP) binding assay, STAT5A; conditions: FP competition, 5 nM fluorescein-labeled tracer, 200 nM protein, PBS pH7.4
T2 sequence (P42229 1-794): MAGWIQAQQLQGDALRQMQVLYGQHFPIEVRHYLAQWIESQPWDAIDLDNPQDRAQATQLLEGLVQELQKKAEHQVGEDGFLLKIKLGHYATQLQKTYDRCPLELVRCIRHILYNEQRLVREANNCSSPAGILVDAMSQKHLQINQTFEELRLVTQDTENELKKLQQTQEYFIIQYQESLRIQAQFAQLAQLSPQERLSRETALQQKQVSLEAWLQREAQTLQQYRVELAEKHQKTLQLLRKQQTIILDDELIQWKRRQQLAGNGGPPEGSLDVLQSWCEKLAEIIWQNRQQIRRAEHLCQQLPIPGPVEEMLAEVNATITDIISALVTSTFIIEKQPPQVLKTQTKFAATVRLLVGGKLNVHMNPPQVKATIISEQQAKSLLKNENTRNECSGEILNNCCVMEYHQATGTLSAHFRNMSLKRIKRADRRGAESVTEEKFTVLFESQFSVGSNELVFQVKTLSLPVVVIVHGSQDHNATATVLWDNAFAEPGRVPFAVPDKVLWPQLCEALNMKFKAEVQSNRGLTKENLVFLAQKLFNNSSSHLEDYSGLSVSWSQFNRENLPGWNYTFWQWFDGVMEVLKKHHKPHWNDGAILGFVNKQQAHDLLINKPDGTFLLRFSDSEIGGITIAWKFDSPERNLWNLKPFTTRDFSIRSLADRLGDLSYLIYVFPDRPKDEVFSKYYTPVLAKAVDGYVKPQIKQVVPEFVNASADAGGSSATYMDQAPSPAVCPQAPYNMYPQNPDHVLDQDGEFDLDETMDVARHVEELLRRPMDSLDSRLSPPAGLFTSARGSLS
How it was run: as §1

Compound | Ki (STAT6 protein) [µM] | Ki (STAT5A) [µM]
CC(C)(C)[C@H](NC(=O)c1cc2cc(C(F)(F)P(=O)(O)O)ccc2s1)C(=O)N1CCC[C@H]1C(=O)N1C[C@@H]2CCN(C(=O)c3ccc(F)cc3)[C@@H]2C1 [Compound 97, (difluoro(2-(((S)-1-((S)-2-((3aS,6aS)-1-(4-fluorobenzoyl)octahydropyrrolo[3,4-b]pyrrole-5-carbonyl)pyrrolidin-1-yl)-3,3-dimethyl-1-oxobutan-2-yl)carbamoyl)benzo[b]thiophen-5-yl)methyl)phosphonic acid] | > 10 | > 10
CC1(c2ccc(F)cc2)CN(C(=O)[C@@H]2CCCN2C(=O)[C@@H](NC(=O)c2cc3cc(C(F)(F)P(=O)(O)O)ccc3s2)C(C)(C)C)CCO1 (stereo partly drawn) [Compound 100, (difluoro(2-(((2S)-1-((2S)-2-(2-(4-fluorophenyl)-2-methylmorpholine-4-carbonyl)pyrrolidin-1-yl)-3,3-dimethyl-1-oxobutan-2-yl)carbamoyl)benzo[b]thiophen-5-yl)methyl)phosphonic acid] | 1 to 10 | > 10
CC1(c2ccc(Cl)cc2)CN(C(=O)[C@@H]2CCCN2C(=O)[C@@H](NC(=O)c2cc3cc(C(F)(F)P(=O)(O)O)ccc3s2)C(C)(C)C)CCO1 (stereo partly drawn) [Compound 101, ((2-(((2S)-1-((2S)-2-(2-(4-chlorophenyl)-2-methylmorpholine-4-carbonyl)pyrrolidin-1-yl)-3,3-dimethyl-1-oxobutan-2-yl)carbamoyl)benzo[b]thiophen-5-yl)difluoromethyl)phosphonic acid] | 1 to 10 | > 10
CC(C)(C)[C@H](NC(=O)c1cc2cc(C(F)(F)P(=O)(O)O)ccc2s1)C(=O)N1CCC[C@H]1C(=O)N1CCOC(c2ccc(F)cc2)C1 (stereo partly drawn) [Compound 102, (difluoro(2-(((2S)-1-((2S)-2-(2-(4-fluorophenyl)morpholine-4-carbonyl)pyrrolidin-1-yl)-3,3-dimethyl-1-oxobutan-2-yl)carbamoyl)benzo[b]thiophen-5-yl)methyl)phosphonic acid] | 0.1 to 1 | > 10
CC(C)(C)[C@H](NC(=O)c1cc2cc(C(F)(F)P(=O)(O)O)ccc2s1)C(=O)N1CCC[C@H]1C(=O)N1CCOC(c2cccc(Cl)c2)C1 (stereo partly drawn) [Compound 103, ((2-(((2S)-1-((2S)-2-(2-(3-chlorophenyl)morpholine-4-carbonyl)pyrrolidin-1-yl)-3,3-dimethyl-1-oxobutan-2-yl)carbamoyl)benzo[b]thiophen-5-yl)difluoromethyl)phosphonic acid] | 1 to 10 | 1 to 10
CC(C)(C)[C@H](NC(=O)c1cc2cc(C(F)(F)P(=O)(O)O)ccc2s1)C(=O)N1CCC[C@H]1C(=O)N1CCOC(c2cc(F)c(Cl)cc2Cl)C1 (stereo partly drawn) [Compound 104, ((2-(((2S)-1-((2S)-2-(2-(2,4-dichloro-5-fluorophenyl)morpholine-4-carbonyl)pyrrolidin-1-yl)-3,3-dimethyl-1-oxobutan-2-yl)carbamoyl)benzo[b]thiophen-5-yl)difluoromethyl)phosphonic acid] | 1 to 10 | 1 to 10
Cc1ccccc1C1CCCN(C(=O)[C@@H]2CCCN2C(=O)[C@@H](NC(=O)c2cc3cc(C(F)(F)P(=O)(O)O)ccc3s2)C(C)(C)C)C1 (stereo partly drawn) [Compound 105, ((2-(((2S)-3,3-dimethyl-1-oxo-1-((2S)-2-(3-(o-tolyl)piperidine-1-carbonyl)pyrrolidin-1-yl)butan-2-yl)carbamoyl)benzo[b]thiophen-5-yl)difluoromethyl)phosphonic acid] | 1 to 10 | > 10
Cc1ccccc1C1CN(C(=O)[C@@H]2CCCN2C(=O)[C@@H](NC(=O)c2cc3cc(C(F)(F)P(=O)(O)O)ccc3s2)C(C)(C)C)CCO1 (stereo partly drawn) [Compound 106, ((2-(((2S)-3,3-dimethyl-1-oxo-1-((2S)-2-(2-(o-tolyl)morpholine-4-carbonyl)pyrrolidin-1-yl)butan-2-yl)carbamoyl)benzo[b]thiophen-5-yl)difluoromethyl)phosphonic acid] | 0.1 to 1 | 1 to 10
Cc1ccc(C2CN(C(=O)[C@@H]3CCCN3C(=O)[C@@H](NC(=O)c3cc4cc(C(F)(F)P(=O)(O)O)ccc4s3)C(C)(C)C)CCO2)c(C)c1 (stereo partly drawn) [Compound 107, ((2-(((2S)-1-((2S)-2-(2-(2,4-dimethylphenyl)morpholine-4-carbonyl)pyrrolidin-1-yl)-3,3-dimethyl-1-oxobutan-2-yl)carbamoyl)benzo[b]thiophen-5-yl)difluoromethyl)phosphonic acid] | 1 to 10 | > 10

Next, values leading:

Ki (STAT6 protein) [µM] | Ki (STAT5A) [µM] | Compound
1 to 10 | > 10 | Cc1cc(C2CN(C(=O)[C@@H]3CCCN3C(=O)[C@@H](NC(=O)c3cc4cc(C(F)(F)P(=O)(O)O)ccc4s3)C(C)(C)C)CCO2)ccc1F (stereo partly drawn) [Compound 108, (difluoro(2-(((2S)-1-((2S)-2-(2-(4-fluoro-3-methylphenyl)morpholine-4-carbonyl)pyrrolidin-1-yl)-3,3-dimethyl-1-oxobutan-2-yl)carbamoyl)benzo[b]thiophen-5-yl)methyl)phosphonic acid]
0.1 to 1 | > 10 | CC(C)(C)[C@H](NC(=O)c1cc2cc(C(F)(F)P(=O)(O)O)ccc2s1)C(=O)N1CCC[C@H]1C(=O)N1CCOC(c2ccccc2F)C1 (stereo partly drawn) [Compound 109, (difluoro(2-(((2S)-1-((2S)-2-(2-(2-fluorophenyl)morpholine-4-carbonyl)pyrrolidin-1-yl)-3,3-dimethyl-1-oxobutan-2-yl)carbamoyl)benzo[b]thiophen-5-yl)methyl)phosphonic acid]
1 to 10 | > 10 | CC(C)(C)[C@H](NC(=O)c1cc2cc(C(F)(F)P(=O)(O)O)ccc2s1)C(=O)N1CCC[C@H]1C(=O)N1CCOC(c2ccc(F)cc2F)C1 (stereo partly drawn) [Compound 110, ((2-(((2S)-1-((2S)-2-(2-(2,4-difluorophenyl)morpholine-4-carbonyl)pyrrolidin-1-yl)-3,3-dimethyl-1-oxobutan-2-yl)carbamoyl)benzo[b]thiophen-5-yl)difluoromethyl)phosphonic acid]
0.1 to 1 | > 10 | CC(C)(C)[C@H](NC(=O)c1cc2cc(C(F)(F)P(=O)(O)O)ccc2s1)C(=O)N1CCC[C@H]1C(=O)N1CCOC(c2ccc(F)c(F)c2)C1 (stereo partly drawn) [Compound 111, ((2-(((2S)-1-((2S)-2-(2-(3,4-difluorophenyl)morpholine-4-carbonyl)pyrrolidin-1-yl)-3,3-dimethyl-1-oxobutan-2-yl)carbamoyl)benzo[b]thiophen-5-yl)difluoromethyl)phosphonic acid]
0.1 to 1 | > 10 | CC(C)(C)[C@H](NC(=O)c1cc2cc(C(F)(F)P(=O)(O)O)ccc2s1)C(=O)N1CCC[C@H]1C(=O)N1CCOC(c2ccccc2Cl)C1 (stereo partly drawn) [Compound 112, ((2-(((2S)-1-((2S)-2-(2-(2-chlorophenyl)morpholine-4-carbonyl)pyrrolidin-1-yl)-3,3-dimethyl-1-oxobutan-2-yl)carbamoyl)benzo[b]thiophen-5-yl)difluoromethyl)phosphonic acid]
0.1 to 1 | 1 to 10 | CC(C)(C)[C@H](NC(=O)c1cc2cc(C(F)(F)P(=O)(O)O)ccc2s1)C(=O)N1CCC[C@H]1C(=O)N1CCOC(c2ccc(F)c(Cl)c2)C1 (stereo partly drawn) [Compound 113, ((2-(((2S)-1-((2S)-2-(2-(3-chloro-4-fluorophenyl)morpholine-4-carbonyl)pyrrolidin-1-yl)-3,3-dimethyl-1-oxobutan-2-yl)carbamoyl)benzo[b]thiophen-5-yl)difluoromethyl)phosphonic acid]
